Results reported in ChEMBL document CHEMBL1152016, “Synthesis and -lactamase inhibition of anacardic acids and their analogues” (Bioorg Med Chem Lett, 1994).
Values after ≈ are worked out from the molar mass of the structure shown.

Assays:
Beta-lactamase [1] = target: T1, Beta-lactamase (Staphylococcus aureus, UniProt P00807); assay: Concentration required for its inhibitory activity against Staphylococcus aureus Russel class A beta-lactamase; No inhibition
Beta-lactamase [2] = target: Beta-lactamase (Enterobacter cloacae, UniProt P05364); assay: Concentration required for its inhibitory activity against Enterobacter cloacae P99 class C beta-lactamase
Beta-lactamase (Enterobacter cloacae, UniProt P05364), sequence (P05364 whole entry): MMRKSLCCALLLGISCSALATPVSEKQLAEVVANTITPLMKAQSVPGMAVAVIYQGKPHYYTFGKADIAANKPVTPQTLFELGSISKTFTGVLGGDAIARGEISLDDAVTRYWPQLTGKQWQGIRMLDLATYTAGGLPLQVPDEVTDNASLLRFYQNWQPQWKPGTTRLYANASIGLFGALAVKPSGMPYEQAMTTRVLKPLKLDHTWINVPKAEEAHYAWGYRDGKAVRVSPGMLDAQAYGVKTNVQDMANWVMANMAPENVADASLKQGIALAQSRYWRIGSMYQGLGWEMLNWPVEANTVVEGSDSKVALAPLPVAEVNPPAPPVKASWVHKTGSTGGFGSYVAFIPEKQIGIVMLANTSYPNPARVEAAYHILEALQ

Beta-lactamase [3] = target: Beta-lactamase (Pseudomonas aeruginosa (strain ATCC 15692 / PAO1 / 1C / PRS 101 / LMG12228), UniProt P24735); assay: Concentration required for its inhibitory activity against Pseudomonas aeruginosa class C beta-lactamase
Beta-lactamase (Pseudomonas aeruginosa (strain ATCC 15692 / PAO1 / 1C / PRS 101 / LMG12228), UniProt P24735), sequence (P24735 whole entry): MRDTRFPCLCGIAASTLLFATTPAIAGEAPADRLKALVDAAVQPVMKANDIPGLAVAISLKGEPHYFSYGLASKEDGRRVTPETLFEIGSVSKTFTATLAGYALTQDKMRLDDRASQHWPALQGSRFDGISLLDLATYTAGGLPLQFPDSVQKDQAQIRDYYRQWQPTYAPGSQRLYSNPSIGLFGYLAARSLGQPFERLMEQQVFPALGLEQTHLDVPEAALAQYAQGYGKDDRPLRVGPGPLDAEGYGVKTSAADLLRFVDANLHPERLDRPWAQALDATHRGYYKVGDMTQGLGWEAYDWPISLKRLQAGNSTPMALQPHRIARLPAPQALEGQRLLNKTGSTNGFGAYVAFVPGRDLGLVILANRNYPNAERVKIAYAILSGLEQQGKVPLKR

Beta-lactamase TEM = Beta-lactamase TEM (Escherichia coli, UniProt P62593); assay: Concentration required for its inhibitory activity against Escherichia coli JT4(TEM1) class A beta-lactamase
Beta-lactamase TEM, sequence (P62593 whole entry): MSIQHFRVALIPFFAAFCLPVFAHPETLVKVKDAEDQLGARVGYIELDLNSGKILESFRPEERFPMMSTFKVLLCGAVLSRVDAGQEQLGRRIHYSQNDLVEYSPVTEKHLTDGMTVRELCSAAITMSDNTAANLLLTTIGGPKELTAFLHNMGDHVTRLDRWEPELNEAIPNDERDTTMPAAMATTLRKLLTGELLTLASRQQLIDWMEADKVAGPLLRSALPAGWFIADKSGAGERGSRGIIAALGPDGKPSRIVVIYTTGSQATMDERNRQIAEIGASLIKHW

Beta-lactamase pse-1 = target: T2, Beta-lactamase pse-1 (Escherichia coli, UniProt Q2V0Y6); assay: Concentration required for its inhibitory activity against Escherichia coli K12(PSE4) class A beta-lactamase
T2 sequence (Q2V0Y6 whole entry): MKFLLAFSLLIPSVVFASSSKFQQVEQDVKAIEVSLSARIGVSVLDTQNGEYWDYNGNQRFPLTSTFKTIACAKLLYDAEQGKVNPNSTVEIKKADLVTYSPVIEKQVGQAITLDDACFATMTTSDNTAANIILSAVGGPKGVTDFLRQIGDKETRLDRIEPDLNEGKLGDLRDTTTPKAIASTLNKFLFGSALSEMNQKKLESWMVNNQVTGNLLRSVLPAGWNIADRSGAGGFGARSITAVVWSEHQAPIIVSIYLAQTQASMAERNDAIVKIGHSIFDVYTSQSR

Beta-lactamase OXA-1 [4] = target: T3, Beta-lactamase OXA-1 (Escherichia coli, UniProt P13661); assay: Concentration required for its inhibitory activity against Escherichia coli K12(OXA1) class D beta-lactamase
T3 sequence (P13661 whole entry): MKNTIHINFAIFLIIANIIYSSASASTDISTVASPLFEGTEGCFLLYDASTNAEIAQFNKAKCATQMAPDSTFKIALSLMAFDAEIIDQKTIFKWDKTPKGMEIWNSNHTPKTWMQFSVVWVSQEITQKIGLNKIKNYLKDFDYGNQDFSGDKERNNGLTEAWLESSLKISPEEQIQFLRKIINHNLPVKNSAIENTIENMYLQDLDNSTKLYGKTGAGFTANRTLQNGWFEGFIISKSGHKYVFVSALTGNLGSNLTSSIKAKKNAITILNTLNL

Beta-lactamase [5] = target: T4, Beta-lactamase (Proteus mirabilis, UniProt P30897); assay: Concentration required for its inhibitory activity against Proteus mirabilis C889 class A beta-lactamase
T4 sequence (P30897 whole entry): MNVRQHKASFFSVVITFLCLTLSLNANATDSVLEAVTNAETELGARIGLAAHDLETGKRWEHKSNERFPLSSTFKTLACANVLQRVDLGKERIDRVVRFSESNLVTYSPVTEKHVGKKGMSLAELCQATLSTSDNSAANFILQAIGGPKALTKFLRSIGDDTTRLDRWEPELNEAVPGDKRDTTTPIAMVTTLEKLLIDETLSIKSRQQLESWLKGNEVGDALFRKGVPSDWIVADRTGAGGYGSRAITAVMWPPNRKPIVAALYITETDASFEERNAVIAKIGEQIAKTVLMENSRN

Beta-lactamase [6] = target: T1, Beta-lactamase; assay: Concentration required for its inhibitory activity against Staphylococcus aureus Russel class A beta-lactamase
Beta-lactamase [7] = target: T4, Beta-lactamase; assay: Concentration required for its inhibitory activity against Proteus mirabilis C889 class A beta-lactamase; No inhibition
Beta-lactamase OXA-1 [8] = target: T3, Beta-lactamase OXA-1; assay: Concentration required for its inhibitory activity against Escherichia coli K12(OXA1) class D beta-lactamase; No inhibition

IC50 (Beta-lactamase OXA-1 [8]) | Compound | IC50 (Beta-lactamase [1]) | IC50 (Beta-lactamase [2]) | IC50 (Beta-lactamase [3]) | IC50 (Beta-lactamase TEM) | IC50 (Beta-lactamase pse-1) | IC50 (Beta-lactamase OXA-1 [4]) | IC50 (Beta-lactamase [5]) | IC50 (Beta-lactamase [6]) | IC50 (Beta-lactamase [7])
– | CC(C)CCCCCCCCCCCCCc1cccc(O)c1C(=O)O | Not Active | 9 µg/mL (≈ 24.8 µM) | 16 µg/mL (≈ 44.1 µM) | 9.7 µg/mL (≈ 26.8 µM) | – | – | – | – | –
– | CCC=CCC=CCC=CCCCCCCCc1cccc(O)c1C(=O)O | Not Active | 17 µg/mL (≈ 45.9 µM) | – | – | 10 µg/mL (≈ 27 µM) | – | – | – | –
– | CCCCCCCCCCCCCCCc1cccc(O)c1O | – | 29 µg/mL (≈ 90.5 µM) | – | – | – | – | – | – | –
– | C=CC/C=C\C/C=C\CCCCCCCc1cccc(O)c1C(=O)O [ANACARDIC ACID] | Not Active | 1.4 µg/mL (≈ 4.09 µM) | 7.2 µg/mL (≈ 21 µM) | 0.8 µg/mL (≈ 2.34 µM) | 1.1 µg/mL (≈ 3.21 µM) | 25 µg/mL (≈ 73 µM) | 31 µg/mL (≈ 90.5 µM) | – | –
– | CCCCCCCCCCc1ccccc1C(=O)O | Not Active | – | – | 18 µg/mL (≈ 68.6 µM) | – | – | – | – | –
– | CCCCCCCCCCc1cccc(O)c1 | – | 4.5 µg/mL (≈ 19.2 µM) | – | 1.9 µg/mL (≈ 8.11 µM) | 4.1 µg/mL (≈ 17.5 µM) | – | – | Not Active | Not Active
– | CCC(C)CCCCCCCCCCCCc1cccc(O)c1C(=O)O (stereo not given) | – | 31 µg/mL (≈ 85.5 µM) | 36 µg/mL (≈ 99.3 µM) | 10 µg/mL (≈ 27.6 µM) | – | – | – | – | –
– | CCCCCCCCCCc1cccc(O)c1C(=O)O | Not Active | – | – | 12 µg/mL (≈ 43.1 µM) | – | – | – | – | –
– | CCCCCCCCCCCCCCCc1cccc(OC)c1C(=O)O | Not Active | 2.5 µg/mL (≈ 6.9 µM) | 11 µg/mL (≈ 30.3 µM) | 0.8 µg/mL (≈ 2.21 µM) | 0.6 µg/mL (≈ 1.65 µM) | > 33 µg/mL | 22 µg/mL (≈ 60.7 µM) | – | –
– | CCCCCCCCCCCCCCCCCc1cccc(O)c1C(=O)O | Not Active | 1 µg/mL (≈ 2.66 µM) | 9.1 µg/mL (≈ 24.2 µM) | 1.9 µg/mL (≈ 5.05 µM) | 0.7 µg/mL (≈ 1.86 µM) | 29 µg/mL (≈ 77 µM) | 8.3 µg/mL (≈ 22 µM) | – | –
– | CCCCCCCCCCc1cccc(O)c1O | – | 21 µg/mL (≈ 83.9 µM) | – | – | – | – | – | – | –
Not Active | CCCCCCCCc1cccc(O)c1C(=O)O | Not Active | – | – | – | 16 µg/mL (≈ 63.9 µM) | – | 3.9 µg/mL (≈ 15.6 µM) | – | –
– | CCCCCCCCCCCCCCCc1cccc(O)c1 | – | 7.2 µg/mL (≈ 23.6 µM) | – | – | 20 µg/mL (≈ 65.7 µM) | – | – | – | Not Active
– | O=C(O)[C@H]1/C(=C/CO)O[C@@H]2CC(=O)N21 [CLAVULANIC ACID] | – | – | – | – | 0.015 µg/mL (≈ 0.0753 µM) | – | – | – | –
